According to the NIST ThermoML archive (doi:10.1016/j.tca.2006.05.010):
± gives the expanded uncertainty stated by the source.

Assays:
[1] = excess molar enthalpy (molar enthalpy of mixing); xn = mol fraction of the nth substance listed; details: 308.15 K, 101 kPa, Liquid, Flow calorimetry
[2] = molar heat capacity at constant pressure; xn = mol fraction of the nth substance listed; details: 308.15 K, 101 kPa, Liquid, Small sample (50 mg) DSC
[3] = molar heat capacity at constant pressure; details: 101.33 kPa, Liquid, Small sample (50 mg) DSC
[4] = 101.33 kPa, Liquid, Vibrating tube method
[5] = refractive index (Na D-line) (dimensionless); details: 101.33 kPa, Liquid, Standard Abbe refractometry

C1COCCO1 [1,4-dioxane] + C[S+](C)[O-]
excess molar enthalpy ([1]; x2 = 0.0478): 0.0318 ± 0.000478 kcal/mol | excess molar enthalpy ([1]; x2 = 0.0911): 0.0531 ± 0.000717 kcal/mol | excess molar enthalpy ([1]; x2 = 0.1308): 0.0672 ± 0.000956 kcal/mol | excess molar enthalpy ([1]; x2 = 0.1671): 0.0765 ± 0.000956 kcal/mol | excess molar enthalpy ([1]; x2 = 0.2313): 0.0872 ± 0.0012 kcal/mol | excess molar enthalpy ([1]; x2 = 0.2863): 0.0923 ± 0.0012 kcal/mol | excess molar enthalpy ([1]; x2 = 0.3757): 0.0978 ± 0.0012 kcal/mol | excess molar enthalpy ([1]; x2 = 0.4451): 0.0997 ± 0.00143 kcal/mol | excess molar enthalpy ([1]; x2 = 0.5462): 0.0966 ± 0.0012 kcal/mol | excess molar enthalpy ([1]; x2 = 0.6437): 0.0915 ± 0.0012 kcal/mol | excess molar enthalpy ([1]; x2 = 0.7066): 0.0851 ± 0.0012 kcal/mol | excess molar enthalpy ([1]; x2 = 0.7831): 0.0741 ± 0.000956 kcal/mol | excess molar enthalpy ([1]; x2 = 0.828): 0.065 ± 0.000956 kcal/mol | excess molar enthalpy ([1]; x2 = 0.8784): 0.0495 ± 0.000717 kcal/mol | excess molar enthalpy ([1]; x2 = 0.9059): 0.0399 ± 0.000717 kcal/mol | excess molar enthalpy ([1]; x2 = 0.9353): 0.0277 ± 0.000478 kcal/mol | excess molar enthalpy ([1]; x2 = 0.9665): 0.0158 ± 0.000239 kcal/mol | molar heat capacity at constant pressure ([2]; x2 = 0.0749): 154.8 ± 2.4 J/K/mol | molar heat capacity at constant pressure ([2]; x2 = 0.1148): 155.1 ± 2.4 J/K/mol | molar heat capacity at constant pressure ([2]; x2 = 0.2112): 155.5 ± 2.4 J/K/mol | molar heat capacity at constant pressure ([2]; x2 = 0.313): 155.4 ± 2.4 J/K/mol | molar heat capacity at constant pressure ([2]; x2 = 0.4096): 155.1 ± 2.4 J/K/mol | molar heat capacity at constant pressure ([2]; x2 = 0.5185): 154.6 ± 2.4 J/K/mol | molar heat capacity at constant pressure ([2]; x2 = 0.6108): 153.9 ± 2.4 J/K/mol | molar heat capacity at constant pressure ([2]; x2 = 0.6637): 153.5 ± 2.4 J/K/mol | molar heat capacity at constant pressure ([2]; x2 = 0.7064): 153.2 ± 2.4 J/K/mol | molar heat capacity at constant pressure ([2]; x2 = 0.8128): 152.5 ± 2.4 J/K/mol | molar heat capacity at constant pressure ([2]; x2 = 0.8952): 152.7 ± 2.4 J/K/mol | molar heat capacity at constant pressure ([2]; x2 = 0.9586): 153.5 ± 2.4 J/K/mol

C[S+](C)[O-] [dimethyl sulfoxide]
molar heat capacity at constant pressure ([3]; 293.15 K): 151.2 ± 2.3 J/K/mol | molar heat capacity at constant pressure ([3]; 298.15 K): 152.4 ± 2.4 J/K/mol | molar heat capacity at constant pressure ([3]; 303.15 K): 153.4 ± 2.4 J/K/mol | molar heat capacity at constant pressure ([3]; 308.15 K): 154.8 ± 2.4 J/K/mol | molar heat capacity at constant pressure ([3]; 313.15 K): 155.4 ± 2.4 J/K/mol | molar heat capacity at constant pressure ([3]; 318.15 K): 156.6 ± 2.4 J/K/mol | molar heat capacity at constant pressure ([3]; 323.15 K): 157.7 ± 2.4 J/K/mol | molar heat capacity at constant pressure ([3]; 328.15 K): 157.8 ± 2.4 J/K/mol | molar heat capacity at constant pressure ([3]; 333.15 K): 158.5 ± 2.5 J/K/mol | molar heat capacity at constant pressure ([3]; 338.15 K): 159.3 ± 2.5 J/K/mol | molar heat capacity at constant pressure ([3]; 343.15 K): 159.5 ± 2.5 J/K/mol | molar heat capacity at constant pressure ([3]; 348.15 K): 160.2 ± 2.5 J/K/mol | molar heat capacity at constant pressure ([3]; 353.15 K): 160.3 ± 2.5 J/K/mol | molar heat capacity at constant pressure ([3]; 358.15 K): 161.3 ± 2.5 J/K/mol | molar heat capacity at constant pressure ([3]; 363.15 K): 161.5 ± 2.5 J/K/mol | molar heat capacity at constant pressure ([3]; 368.15 K): 161.7 ± 2.5 J/K/mol | molar heat capacity at constant pressure ([3]; 373.15 K): 162.6 ± 2.5 J/K/mol | molar heat capacity at constant pressure ([3]; 378.15 K): 163.3 ± 2.5 J/K/mol | molar heat capacity at constant pressure ([3]; 383.15 K): 164.8 ± 2.6 J/K/mol | molar heat capacity at constant pressure ([3]; 388.15 K): 166.3 ± 2.6 J/K/mol | molar heat capacity at constant pressure ([3]; 393.15 K): 168.3 ± 2.6 J/K/mol | molar heat capacity at constant pressure ([3]; 398.15 K): 169.1 ± 2.6 J/K/mol | molar heat capacity at constant pressure ([3]; 403.15 K): 170.3 ± 2.6 J/K/mol | molar heat capacity at constant pressure ([3]; 408.15 K): 170.4 ± 2.6 J/K/mol | molar heat capacity at constant pressure ([3]; 413.15 K): 170.6 ± 2.6 J/K/mol | molar heat capacity at constant pressure ([3]; 418.15 K): 171.1 ± 2.7 J/K/mol | molar heat capacity at constant pressure ([3]; 423.15 K): 171.2 ± 2.7 J/K/mol | mass density ([4]; 298.15 K): 1095.58 ± 0.29 kg/m3 | mass density ([4]; 308.15 K): 1085.5 ± 0.29 kg/m3 | refractive index ([5]; 298.15 K): 1.4775 ± 0.0004 | refractive index ([5]; 308.15 K): 1.4729 ± 0.0004

C1CCOC1 [tetrahydrofuran]
molar heat capacity at constant pressure ([3]; 288.15 K): 121.1 ± 1.9 J/K/mol | molar heat capacity at constant pressure ([3]; 293.15 K): 123.8 ± 1.9 J/K/mol | molar heat capacity at constant pressure ([3]; 298.15 K): 126.4 ± 2 J/K/mol | molar heat capacity at constant pressure ([3]; 303.15 K): 128.5 ± 2 J/K/mol | molar heat capacity at constant pressure ([3]; 308.15 K): 131.4 ± 2 J/K/mol | molar heat capacity at constant pressure ([3]; 313.15 K): 133.2 ± 2.1 J/K/mol | molar heat capacity at constant pressure ([3]; 318.15 K): 135.2 ± 2.1 J/K/mol | molar heat capacity at constant pressure ([3]; 323.15 K): 136.6 ± 2.1 J/K/mol | mass density ([4]; 298.15 K): 881.9 ± 0.11 kg/m3 | mass density ([4]; 308.15 K): 870.99 ± 0.12 kg/m3 | refractive index ([5]; 298.15 K): 1.4048 ± 0.0004 | refractive index ([5]; 308.15 K): 1.4002 ± 0.0004
